Test results: patent US5885995A, “Inhibitors of farnesyl-protein transferase” (Merck & Co., Inc., priority 1997, dated 1999)
Structures can show the parent of a compound that is named as a salt.

Biological target: T1, human FPTase (Homo sapiens, UniProt P49354+P49356)
T1 construct: made in house
Assay: In vitro inhibition of human farnesyl-protein transferase (FPTase)
Format: biochemical
Settings: [3H]-FPP, 100 nM Ras-CVIM, 30 min, read-out: IC50 (inhibitory activity against human FPTase)

- IC50: ≤ 10 µM
Compound: N#Cc1ccc(Cn2cncc2CN2CCN(c3cccc(Cl)c3)CC2=O)cc1 [Example 1, 4-(3-Chlorophenyl)-1-[1-(4-cyanobenzyl)-5-imidazolylmethyl]-2-piperazinone hydrochloride]
